Laboratory results: PubChem BioAssay AID330 (DTP/NCI, 2004)
Where “and” joins values, the source holds several entries; their conditions need not be identical. Identical values can stand only once. Toxic doses and inconclusive results are not listed. The calls were made as follows: active = survival T/C of 150% or more; inactive = T/C below 125% in these data. Square brackets hold non-standard residues; d marks the D form. Peptide text beside a SMILES is read from it. Ac5c = NC1(C(=O)O)CCCC1

Tested on: P388 leukemia ip, CD2F1 mice, survival T/C
Test: NCI In Vivo Anticancer Drug Screen. Data for tumor model P388 Leukemia (intraperitoneal) in CD2F1 (CDF1) mice
Details: endpoint: median survival time, higher = longer survival
How it was run: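 Mice carrying the transplanted tumor received test compound or vehicle. Survival was recorded in each group, and the value is the treated-group measurement divided by that of the vehicle-treated control group.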

[1] = dose: 25.0 mg/kg/injection, schedule: Q01DX005 (ip), vehicle: Klucel (hydroxypropylcellulose) (HPC)
[2] = dose: 25.0 mg/kg/injection, schedule: Q01DX009 (ip), vehicle: Klucel (hydroxypropylcellulose) (HPC)
[3] = dose: 50.0 mg/kg/injection, schedule: Q01DX005 (ip), vehicle: Klucel (hydroxypropylcellulose) (HPC)
[4] = dose: 50.0 mg/kg/injection, schedule: Q01DX009 (ip), vehicle: Klucel (hydroxypropylcellulose) (HPC)
[5] = dose: 100.0 mg/kg/injection, schedule: Q01DX005 (ip), vehicle: Klucel (hydroxypropylcellulose) (HPC)
[6] = dose: 100.0 mg/kg/injection, schedule: Q01DX009 (ip), vehicle: Klucel (hydroxypropylcellulose) (HPC)
[7] = dose: 200.0 mg/kg/injection, schedule: Q01DX005 (ip), vehicle: Klucel (hydroxypropylcellulose) (HPC)
[8] = dose: 200.0 mg/kg/injection, schedule: Q01DX009 (ip), vehicle: Klucel (hydroxypropylcellulose) (HPC)
[9] = dose: 50.0 mg/kg/injection, schedule: Q01DX005 (ip), vehicle: saline
[10] = dose: 100.0 mg/kg/injection, schedule: Q01DX005 (ip), vehicle: saline
[11] = dose: 200.0 mg/kg/injection, schedule: Q01DX005 (ip), vehicle: saline
[12] = dose: 60.0 mg/kg/injection, schedule: Q01DX005 (ip), vehicle: Klucel (hydroxypropylcellulose) (HPC)
[13] = dose: 120.0 mg/kg/injection, schedule: Q01DX005 (ip), vehicle: Klucel (hydroxypropylcellulose) (HPC)
[14] = dose: 240.0 mg/kg/injection, schedule: Q01DX005 (ip), vehicle: Klucel (hydroxypropylcellulose) (HPC)
[15] = dose: 3.12 mg/kg/injection, schedule: Q01DX009 (ip), vehicle: saline
[16] = dose: 6.25 mg/kg/injection, schedule: Q01DX009 (ip), vehicle: saline
[17] = dose: 100.0 mg/kg/injection, schedule: Q01DX001 (ip), vehicle: saline with Tween-80
[18] = dose: 50.0 mg/kg/injection, schedule: Q01DX005 (ip), vehicle: saline with Tween-80
[19] = dose: 100.0 mg/kg/injection, schedule: Q01DX005 (ip), vehicle: saline with Tween-80
[20] = dose: 2.5 mg/kg/injection, schedule: Q01DX009 (ip), vehicle: saline
[21] = dose: 5.0 mg/kg/injection, schedule: Q01DX009 (ip), vehicle: saline

Measured: T/C

CCN(CC)CCCC(C)Nc1ccnc2cc(N(C)C)ccc12 (stereo not drawn)
inactive: dose: 6.25 mg/kg/injection, schedule: Q01DX009 (ip), vehicle: saline with Tween-80 93 % of control | dose: 12.5 mg/kg/injection, schedule: Q01DX009 (ip), vehicle: saline with Tween-80 109 % of control | dose: 25.0 mg/kg/injection, schedule: Q01DX009 (ip), vehicle: saline with Tween-80 111 % of control

c1ccc2c(c1)Cc1cc3ccccc3nc1-2
inactive: [1] 94 % of control | [2] 94 % of control | [3] 100 % of control | [4] 91 % of control | [5] 100 % of control | [6] 106 % of control | [7] 97 % of control | [8] 100 % of control

O=C1c2ccccc2C(=O)c2c(NCC3CO3)ccc(NCC3CO3)c21 (stereo not drawn)
inactive: dose: 0.75 mg/kg/injection, schedule: Q01DX005 (ip), vehicle: Klucel (hydroxypropylcellulose) (HPC) 112 % of control | dose: 1.5 mg/kg/injection, schedule: Q01DX005 (ip), vehicle: Klucel (hydroxypropylcellulose) (HPC) 112 % of control | dose: 3.0 mg/kg/injection, schedule: Q01DX005 (ip), vehicle: Klucel (hydroxypropylcellulose) (HPC) 114 % of control | dose: 6.0 mg/kg/injection, schedule: Q01DX005 (ip), vehicle: Klucel (hydroxypropylcellulose) (HPC) 114 % of control

O=C(Nc1ccccc1)c1cnc[nH]1
inactive: [2] 99 % of control | [4] 102 % of control | [6] 102 % of control | [8] 96 % of control

O=c1ccn(C2OC(COC(c3ccccc3)(c3ccccc3)c3ccccc3)C(OC(c3ccccc3)(c3ccccc3)c3ccccc3)C2O)c(=O)[nH]1 (stereo not drawn)
inactive: [1] 99 % of control | [3] 95 % of control | [5] 105 % of control | [7] 97 % of control

C1OC2OCC1O2
inactive: dose: 50.0 mg/kg/injection, schedule: Q01DX009 (ip), vehicle: saline with Tween-80 87 % of control | dose: 100.0 mg/kg/injection, schedule: Q01DX009 (ip), vehicle: saline with Tween-80 93 % of control | dose: 200.0 mg/kg/injection, schedule: Q01DX009 (ip), vehicle: saline with Tween-80 105 % of control

CC(C)NC1CCC(Nc2ccnc3cc(Cl)ccc23)CC1 (stereo not drawn)
inactive: [3] 98 % of control | [5] 97 % of control

CC(=O)Oc1ccc(OC(C)=O)c2c1CC1OC1C2 (stereo not drawn)
inactive: dose: 3.13 mg/kg/injection, schedule: Q01DX009 (ip), vehicle: water 100 % of control | dose: 6.25 mg/kg/injection, schedule: Q01DX009 (ip), vehicle: water 98 % of control | dose: 12.5 mg/kg/injection, schedule: Q01DX009 (ip), vehicle: water 100 % of control | dose: 25.0 mg/kg/injection, schedule: Q01DX009 (ip), vehicle: water 90 % of control | dose: 50.0 mg/kg/injection, schedule: Q01DX009 (ip), vehicle: water 100 % of control | dose: 100.0 mg/kg/injection, schedule: Q01DX009 (ip), vehicle: distilled water + Tween-80 111 % of control | dose: 200.0 mg/kg/injection, schedule: Q01DX009 (ip), vehicle: distilled water + Tween-80 111 % of control | dose: 400.0 mg/kg/injection, schedule: Q01DX009 (ip), vehicle: distilled water + Tween-80 100 % of control

CC(=O)/C(C(=N)c1nc(C)c(C(=O)c2ccccc2)c(C(N)=O)n1)=C(/O)c1ccccc1
inactive: dose: 100.0 mg/kg/injection, schedule: Q01DX001 (ip), vehicle: Klucel (hydroxypropylcellulose) (HPC) 90 % of control | dose: 200.0 mg/kg/injection, schedule: Q01DX001 (ip), vehicle: Klucel (hydroxypropylcellulose) (HPC) 88 % of control | dose: 400.0 mg/kg/injection, schedule: Q01DX001 (ip), vehicle: Klucel (hydroxypropylcellulose) (HPC) 89 % of control

COc1ccc(C(=O)CCN(C)C)c2ccccc12
inactive: [9] 102 % of control | [10] 100 % of control | [11] 93 % of control

Clc1ccc(N2CCOCC2)nn1
inactive: dose: 50.0 mg/kg/injection, schedule: Q01DX009 (ip), vehicle: saline 104 % of control | dose: 100.0 mg/kg/injection, schedule: Q01DX009 (ip), vehicle: saline 88 % of control | dose: 200.0 mg/kg/injection, schedule: Q01DX009 (ip), vehicle: saline 100 % of control

O=C(O)CCC(=O)NNc1nc2ccccc2s1
inactive: [12] 102 % of control | [13] 104 % of control | [14] 97 % of control

CCCCCCOc1ccc(OCCCC[N+]2(CC)CCCCC2)cc1
inactive: dose: 1.56 mg/kg/injection, schedule: Q01DX009 (ip), vehicle: saline 105 % of control | [15] 106 % of control | [16] 104 % of control

Clc1ccc(N2C(c3ccccc3)=N[C@@H](N3CCOCC3)[C@@H]2N2CCOCC2)cc1
inactive: [3] 100 % of control | [5] 100 % of control | [7] 105 % of control

CCOC(=O)C1CCCC(=O)C1Cc1cccc(OC)c1 (stereo not drawn)
inactive: dose: 50.0 mg/kg/injection, schedule: Q01DX009 (ip), vehicle: other 100 % of control | dose: 100.0 mg/kg/injection, schedule: Q01DX009 (ip), vehicle: other 106 % of control | dose: 200.0 mg/kg/injection, schedule: Q01DX009 (ip), vehicle: other 100 % of control

C/C(=C/c1cc(Br)c2c(c1)OCO2)[N+](=O)[O-]
inactive: [17] 110 % of control | dose: 200.0 mg/kg/injection, schedule: Q01DX001 (ip), vehicle: saline with Tween-80 100 % of control | dose: 400.0 mg/kg/injection, schedule: Q01DX001 (ip), vehicle: saline with Tween-80 99 % of control

CC(/C=C/c1ccccc1)=N\NC(=O)c1ccccc1O
inactive: [12] 93 % of control | [13] 95 % of control | [14] 89 % of control

C=C1C[C@](C(N)=O)(C2OC3OC(C)(C)OC3C2OCc2ccccc2)OC1=O (stereo partly drawn)
inactive: dose: 25.0 mg/kg/injection, schedule: Q01DX005 (ip), vehicle: saline with Tween-80 103 % of control | [18] 100 % of control | [17] 96 % of control | [19] 92 % of control

O=C1Nc2ccccc2C(=O)C1(Cc1ccccc1)C(=O)c1ccccc1 (stereo not drawn)
inactive: [12] 99 % of control | [13] 105 % of control | [14] 97 % of control

NCC(=O)NCC(=O)NC1(C(=O)O)CCCC1 (H-Gly-Gly-[Ac5c]-OH)
inactive: [9] 102 % of control and 103 % of control | [10] 110 % of control and 113 % of control | [11] 110 % of control | dose: 400.0 mg/kg/injection, schedule: Q01DX005 (ip), vehicle: saline 116 % of control and 87 % of control

CCCCCCCCCC[N+]1(CC)CCCCCC1
inactive: [15] 90 % of control | [16] 98 % of control

COc1ccc(/C=N/OC(=S)NC2CCCCC2)cc1OC
inactive: [18] 102 % of control | [19] 94 % of control | dose: 200.0 mg/kg/injection, schedule: Q01DX005 (ip), vehicle: saline with Tween-80 93 % of control

C(=N\N1CCCCCC1)/c1c2ccccc2cc2ccccc12
inactive: dose: 50.0 mg/kg/injection, schedule: Q01DX005 (ip), vehicle: Klucel + Tween-80 89 % of control | dose: 100.0 mg/kg/injection, schedule: Q01DX005 (ip), vehicle: Klucel + Tween-80 90 % of control | dose: 200.0 mg/kg/injection, schedule: Q01DX005 (ip), vehicle: Klucel + Tween-80 92 % of control

O=c1c2sc3ccccc3c2ncn1/N=C/c1cccc(Cl)c1
inactive: [3] 96 % of control | [5] 97 % of control | [7] 88 % of control

CCCCCCCCCCCCCCCCN(CC)CC
inactive: [20] 105 % of control | [21] 108 % of control | dose: 10.0 mg/kg/injection, schedule: Q01DX009 (ip), vehicle: saline 103 % of control

NC(CS/C(Cl)=C/Cl)C(=O)O (stereo not drawn)
inactive: dose: 12.0 mg/kg/injection, schedule: Q01DX009 (ip), vehicle: saline with Tween-80 117 % of control | dose: 27.0 mg/kg/injection, schedule: Q01DX009 (ip), vehicle: saline with Tween-80 117 % of control

C=C1C2CCC3C4(C)CC(OC5OC(CO)C(OS(=O)(=O)O)C(OS(=O)(=O)O)C5OC(=O)CC(C)C)CC(C(=O)O)(C(=O)O)C4CCC3(C2)C1O (stereo not drawn)
inactive: dose: 1.25 mg/kg/injection, schedule: Q01DX009 (ip), vehicle: saline 117 % of control | [20] 117 % of control | [21] 114 % of control
